# Assay results published in US20240343704A1, “HALO-SUBSTITUTED AMINO PYRIDINE COMPOUNDS AS INHIBITORS OF THE HAEMATOPOIETIC PROGENITOR KINASE 1 (HPK1)” (priority 2021, published 2024).
# Where two headings read alike, the source gives them in different places.
# Tests used:
# [1] = molecular target: T1, Recombinant (1-346) HPK1 (h) (Homo sapiens, UniProt Q92918); assay: HPK1 Human STE Kinase Enzymatic Radiometric Assay; assay type: biochemical
# T1 construct: Recombinant (1-346) HPK1 (h) is incubated with 8 mM MOPS pH 7.0
# T1 sequence (Q92918 1-346): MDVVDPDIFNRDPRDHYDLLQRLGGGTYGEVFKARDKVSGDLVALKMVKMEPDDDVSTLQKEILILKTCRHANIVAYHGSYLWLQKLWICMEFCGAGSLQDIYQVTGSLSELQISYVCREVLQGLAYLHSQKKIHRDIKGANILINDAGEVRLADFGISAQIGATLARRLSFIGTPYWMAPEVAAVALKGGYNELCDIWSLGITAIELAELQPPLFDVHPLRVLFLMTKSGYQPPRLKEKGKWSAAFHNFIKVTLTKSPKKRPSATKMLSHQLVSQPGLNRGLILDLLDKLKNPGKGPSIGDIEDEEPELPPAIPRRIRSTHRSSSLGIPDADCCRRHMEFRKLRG
# Procedure: A stock solution of 10 mM of test compound is prepared in DMSO. The compound plate was prepared by 3-fold and 9-point serial dilutions. […] The reaction is initiated by The addition of the Mg/ATP mix. After incubation for 40 minutes at RT, the reaction is stopped by the addition of phosphoric acid to a concentration of 0.5%.
# Lck (h) = Lck (h) (Homo sapiens, UniProt P06239); assay: Lck Human  Kinase Enzymatic Radiometric Assay; assay type: biochemical
# Outline: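 Substrate 33P-incorporation measured by scintillation counting after spotting on P30 filtermat and phosphoric acid washes. Human Lck reacted 40 min at RT in 50 mM Tris pH 7.5 with 10 mM MgAcetate, [gamma-33P]-ATP, 250 uM Cdc2 peptide, 0.1 mM EGTA and 0.1 mM Na3VO4.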
# Chain of Lck (h) (P06239 whole entry): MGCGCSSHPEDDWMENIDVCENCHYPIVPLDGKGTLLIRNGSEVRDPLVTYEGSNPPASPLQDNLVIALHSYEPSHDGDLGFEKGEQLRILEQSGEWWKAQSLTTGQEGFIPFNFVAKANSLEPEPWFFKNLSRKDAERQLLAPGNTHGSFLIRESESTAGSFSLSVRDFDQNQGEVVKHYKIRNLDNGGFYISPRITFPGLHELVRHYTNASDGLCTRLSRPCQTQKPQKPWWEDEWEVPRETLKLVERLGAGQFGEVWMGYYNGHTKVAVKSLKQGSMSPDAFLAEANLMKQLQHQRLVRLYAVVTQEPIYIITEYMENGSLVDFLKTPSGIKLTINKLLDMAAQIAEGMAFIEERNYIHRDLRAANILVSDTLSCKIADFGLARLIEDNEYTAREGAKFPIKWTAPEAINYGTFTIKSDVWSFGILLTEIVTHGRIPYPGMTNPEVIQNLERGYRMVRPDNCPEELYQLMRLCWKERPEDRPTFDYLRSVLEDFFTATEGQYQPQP
smiles,measurement,setting,value
"CC(C)(C)OC(=O)N1CCC2(CC1)OCc1cc(-c3cc(-c4ccc5c(c4)CCNC5=O)c(N)nc3F)ccc1O2 [I-173, tert-butyl 6-(6-amino-2-fluoro-5-(1-oxo-1,2,3,4-tetrahydroisoquinolin-6-yl)pyridin-3-yl)-4H-spiro[benzo[d][1,3]dioxine-2,4′-piperidine]-1′-carboxylate]",IC50,[1],11 to 100 nM
same,IC50,Lck (h),> 1000 nM
"CC(C)(C)OC(=O)N1CCC2(CC1)CC(=O)c1cc(-c3cc(-c4ccc5c(c4)CCNC5=O)c(N)nc3F)ccc1O2 [I-174, tert-butyl 6-(6-amino-2-fluoro-5-(1-oxo-1,2,3,4-tetrahydroisoquinolin-6-yl)pyridin-3-yl)-4-oxospiro[chromane-2,4′-piperidine]-1′-carboxylate]",IC50,[1]; read-out: HPK1 IC50 nM Range*,11 to 100 nM
same,IC50,Lck (h); read-out: Lck IC50 nM Range*,> 1000 nM
"CC(C)(C)OC(=O)N1CCC2(CCc3cc(-c4cc(-c5ccc6c(c5)CCNC6=O)c(N)nc4F)ccc3O2)CC1 [I-175, tert-butyl 6-(6-amino-2-fluoro-5-(1-oxo-1,2,3,4-tetrahydroisoquinolin-6-yl)pyridin-3-yl)spiro[chromane-24′-piperidine]-1′-carboxylate]",IC50,[1]; read-out: HPK1 IC50 nM Range*,101 to 1000 nM
same,IC50,Lck (h); read-out: Lck IC50 nM Range*,> 1000 nM
"CC(C)(C)OC(=O)N1CCC(Oc2ccc(-c3cc(-c4ccc5c(c4)CCNC5=O)c(N)nc3F)cc2C#N)CC1 [I-176, tert-butyl 4-(4-(6-amino-2-fluoro-5-(1-oxo-1,2,3,4-tetrahydroisoquinolin-6-yl)pyridin-3-yl)-2-cyanophenoxy)piperidine-1-carboxylate]",IC50,[1]; read-out: HPK1 IC50 nM Range*,11 to 100 nM
same,IC50,Lck (h); read-out: Lck IC50 nM Range*,> 1000 nM
"CC(C)(C)OC(=O)N1CCN(c2ccc(-c3cc(-c4ccc5c(c4)CCNC5=O)c(N)nc3F)cc2C(F)(F)F)CC1 [I-177, tert-butyl 4-(4-(6-amino-2-fluoro-5-(1-oxo-1,2,3,4-tetrahydroisoquinolin-6-yl)pyridin-3-yl)-2-(trifluoromethyl)phenyl)piperazine-1-carboxylate]",IC50,[1]; read-out: HPK1 IC50 nM Range*,101 to 1000 nM
same,IC50,Lck (h); read-out: Lck IC50 nM Range*,> 1000 nM
"C[C@@H]1C[C@@H](Oc2ccc(-c3cc(-c4ccc5c(c4)CCNC5=O)c(N)nc3F)cc2)C[C@H](C)N1 [I-178, 6-(2-amino-5-(4-(((2S,4s,6R)-2,6-dimethylpiperidin-4-yl)oxy)phenyl)-6-fluoropyridin-3-yl)-3,4-dihydroisoquinolin-1(2H)-one]",IC50,[1]; read-out: HPK1 IC50 nM Range*,0.1 to 10 nM
same,IC50,Lck (h); read-out: Lck IC50 nM Range*,> 1000 nM
"Nc1nc(F)c(-c2ccc(OC3CCNCC3)c(F)c2)cc1-c1ccc2c(c1)CCNC2=O [I-179, 6-(2-amino-6-fluoro-5-(3-fluoro-4-(piperidin-4-yloxy)phenyl)pyridin-3-yl)-3,4-dihydroisoquinolin-1(2H)-one]",IC50,[1]; read-out: HPK1 IC50 nM Range*,0.1 to 10 nM
same,IC50,Lck (h); read-out: Lck IC50 nM Range*,> 1000 nM
"Nc1nc(F)c(-c2ccc(O[C@@H]3CCCNC3)cc2)cc1-c1cc2c(cc1F)C(=O)NCC2 [I-180, (R)-6-(2-amino-6-fluoro-5-(4-(piperidin-3-yloxy)phenyl)pyridin-3-yl)-7-fluoro-3,4-dihydroisoquinolin-1(2H)-one]",IC50,[1]; read-out: HPK1 IC50 nM Range*,11 to 100 nM
same,IC50,Lck (h); read-out: Lck IC50 nM Range*,> 1000 nM
"Nc1nc(F)c(-c2ccc3c(c2)COC2(CCNCC2)O3)cc1-c1ccc2c(c1)CCNC2=O [I-181, 6-(2-amino-6-fluoro-5-(4H-spiro[benzo[d][1,3]dioxine-2,4′-piperidin]-6-yl)pyridin-3-yl)-3,4-dihydroisoquinolin-1(2H)-one]",IC50,[1],0.1 to 10 nM
same,IC50,Lck (h),> 1000 nM
"Nc1nc(F)c(-c2ccc3c(c2)C(=O)CC2(CCNCC2)O3)cc1-c1ccc2c(c1)CCNC2=O [I-182, 6-(6-amino-2-fluoro-5-(1-oxo-1,2,3,4-tetrahydroisoquinolin-6-yl)pyridin-3-yl)spiro[chromane-2,4′-piperidin]-4-one 2,2,2-trifluoroacetate]",IC50,[1]; read-out: HPK1 IC50 nM Range*,0.1 to 10 nM
same,IC50,Lck (h); read-out: Lck IC50 nM Range*,> 1000 nM
"Nc1nc(F)c(-c2ccc3c(c2)CCC2(CCNCC2)O3)cc1-c1ccc2c(c1)CCNC2=O [I-183, 6-(2-amino-6-fluoro-5-(spiro[chromane-2,4′-piperidin]-6-yl)pyridin-3-yl)-3,4-dihydroisoquinolin-1(2H)-one]",IC50,[1]; read-out: HPK1 IC50 nM Range*,0.1 to 10 nM
same,IC50,Lck (h); read-out: Lck IC50 nM Range*,> 1000 nM
"N#Cc1cc(-c2cc(-c3ccc4c(c3)CCNC4=O)c(N)nc2F)ccc1OC1CCNCC1 [I-184, 5-(6-amino-2-fluoro-5-(1-oxo-1,2,3,4-tetrahydroisoquinolin-6-yl)pyridin-3-yl)-2-(piperidin-4-yloxy)benzonitrile]",IC50,[1]; read-out: HPK1 IC50 nM Range*,11 to 100 nM
same,IC50,Lck (h); read-out: Lck IC50 nM Range*,> 1000 nM
"Nc1nc(F)c(-c2ccc(N3CCNCC3)c(C(F)(F)F)c2)cc1-c1ccc2c(c1)CCNC2=O [I-185, 6-(2-amino-6-fluoro-5-(4-(piperazin-1-yl)-3-(trifluoromethyl)phenyl)pyridin-3-yl)-3,4-dihydroisoquinolin-1(2H)-one]",IC50,[1]; read-out: HPK1 IC50 nM Range*,0.1 to 10 nM
same,IC50,Lck (h); read-out: Lck IC50 nM Range*,> 1000 nM
"Nc1nc(F)c(-c2ccc(OC3CCN(CC(F)(F)F)CC3)cc2)cc1-c1ccc2c(c1)CCNC2=O [I-186, 6-(2-amino-6-fluoro-5-(4-((1-(2,2,2-trifluoroethyl)piperidin-4-yl)oxy)phenyl)pyridin-3-yl)-3,4-dihydroisoquinolin-1(2H)-one]",IC50,[1]; read-out: HPK1 IC50 nM Range*,11 to 100 nM
same,IC50,Lck (h); read-out: Lck IC50 nM Range*,> 1000 nM
"Nc1nc(F)c(-c2ccc(OC3CCN(CCC(F)(F)F)CC3)cc2)cc1-c1ccc2c(c1)CCNC2=O [I-187, 6-(2-amino-6-fluoro-5-(4-((1-(3,3,3-trifluoropropyl)piperidin-4-yl)oxy)phenyl)pyridin-3-yl)-3,4-dihydroisoquinolin-1(2H)-one]",IC50,[1]; read-out: HPK1 IC50 nM Range*,0.1 to 10 nM
same,IC50,Lck (h); read-out: Lck IC50 nM Range*,> 1000 nM
"Nc1nc(F)c(-c2ccc(OC3CCN(CCCC(F)(F)F)CC3)cc2)cc1-c1ccc2c(c1)CCNC2=O [I-188, 6-(2-amino-6-fluoro-5-(4-((1-(4,4,4-trifluorobutyl)piperidin-4-yl)oxy)phenyl)pyridin-3-yl)-3,4-dihydroisoquinolin-1(2H)-one]",IC50,[1]; read-out: HPK1 IC50 nM Range*,0.1 to 10 nM
same,IC50,Lck (h); read-out: Lck IC50 nM Range*,> 1000 nM
"COCCN1CCC(Oc2ccc(-c3cc(-c4ccc5c(c4)CCNC5=O)c(N)nc3F)cc2)CC1 [I-189, 6-(2-amino-6-fluoro-5-(4-((1-(2-methoxyethyl)piperidin-4-yl)oxy)phenyl)pyridin-3-yl)-3,4-dihydroisoquinolin-1(2H)-one]",IC50,[1]; read-out: HPK1 IC50 nM Range*,0.1 to 10 nM
same,IC50,Lck (h); read-out: Lck IC50 nM Range*,> 1000 nM
"CC(=O)N1CCC2(CC1)OCc1cc(-c3cc(-c4ccc5c(c4)CCNC5=O)c(N)nc3F)ccc1O2 [I-191, 6-(5-(1′-acetyl-4H-spiro[benzo[d][1,3]dioxine-2,4′-piperidin]-6-yl)-2-amino-6-fluoropyridin-3-yl)-3,4-dihydroisoquinolin-1(2H)-one]",IC50,[1],0.1 to 10 nM
same,IC50,Lck (h),> 1000 nM
"CC(=O)N1CCC2(CC1)CC(=O)c1cc(-c3cc(-c4ccc5c(c4)CCNC5=O)c(N)nc3F)ccc1O2 [I-192, 1′-acetyl-6-(6-amino-2-fluoro-5-(1-oxo-1,2,3,4-tetrahydroisoquinolin-6-yl)pyridin-3-yl)spiro[chromane-2,4′-piperidin]-4-one]",IC50,[1]; read-out: HPK1 IC50 nM Range*,0.1 to 10 nM
same,IC50,Lck (h); read-out: Lck IC50 nM Range*,> 1000 nM
"CC(=O)N1CCC2(CCc3cc(-c4cc(-c5ccc6c(c5)CCNC6=O)c(N)nc4F)ccc3O2)CC1 [I-193, 6-(5-(1′-acetylspiro[chromane-2,4′-piperidin]-6-yl)-2-amino-6-fluoropyridin-3-yl)-3,4-dihydroisoquinolin-1(2H)-one]",IC50,[1]; read-out: HPK1 IC50 nM Range*,0.1 to 10 nM
same,IC50,Lck (h); read-out: Lck IC50 nM Range*,> 1000 nM
"CC(=O)N1CCC(Oc2ccc(-c3cc(-c4ccc5c(c4)CCNC5=O)c(N)nc3F)cc2C#N)CC1 [I-194, 2-((1-acetylpiperidin-4-yl)oxy)-5-(6-amino-2-fluoro-5-(1-oxo-1,2,3,4-tetrahydroisoquinolin-6-yl)pyridin-3-yl)benzonitrile]",IC50,[1]; read-out: HPK1 IC50 nM Range*,0.1 to 10 nM
same,IC50,Lck (h); read-out: Lck IC50 nM Range*,> 1000 nM
"Nc1nc(F)c(-c2ccc3c(c2)COC2(CCN(CC(F)(F)F)CC2)O3)cc1-c1ccc2c(c1)CCNC2=O [I-195, 6-(2-amino-6-fluoro-5-(1′-(2,2,2-trifluoroethyl)-4H-spiro[benzo[d][1,3]dioxine-2,4′-piperidin]-6-yl)pyridin-3-yl)-3,4-dihydroisoquinolin-1(2H)-one]",IC50,[1]; read-out: HPK1 IC50 nM Range*,11 to 100 nM
same,IC50,Lck (h); read-out: Lck IC50 nM Range*,> 1000 nM
"Nc1nc(F)c(-c2ccc3c(c2)C(=O)CC2(CCN(CC(F)(F)F)CC2)O3)cc1-c1ccc2c(c1)CCNC2=O [I-196, 6-(6-amino-2-fluoro-5-(1-oxo-1,2,3,4-tetrahydroisoquinolin-6-yl)pyridin-3-yl)-1′-(2,2,2-trifluoroethyl)spiro[chromane-2,4′-piperidin]-4-one]",IC50,[1]; read-out: HPK1 IC50 nM Range*,0.1 to 10 nM
same,IC50,Lck (h); read-out: Lck IC50 nM Range*,> 1000 nM
"Nc1nc(F)c(-c2ccc3c(c2)CCC2(CCN(CC(F)(F)F)CC2)O3)cc1-c1ccc2c(c1)CCNC2=O [I-197, 6-(2-amino-6-fluoro-5-(1′-(2,2,2-trifluoroethyl)spiro[chromane-2,4′-piperidin]-6-yl)pyridin-3-yl)-3,4-dihydroisoquinolin-1(2H)-one]",IC50,[1]; read-out: HPK1 IC50 nM Range*,11 to 100 nM
same,IC50,Lck (h); read-out: Lck IC50 nM Range*,> 1000 nM
"N#Cc1cc(-c2cc(-c3ccc4c(c3)CCNC4=O)c(N)nc2F)ccc1OC1CCN(CC(F)(F)F)CC1 [I-198, 5-(6-amino-2-fluoro-5-(1-oxo-1,2,3,4-tetrahydroisoquinolin-6-yl)pyridin-3-yl)-2-((1-(2,2,2-trifluoroethyl)piperidin-4-yl)oxy)benzonitrile]",IC50,[1]; read-out: HPK1 IC50 nM Range*,11 to 100 nM
same,IC50,Lck (h); read-out: Lck IC50 nM Range*,> 1000 nM
